In article PMC11684029, “Discovery of VU6024578/BI02982816: An mGlu1 Positive Allosteric Modulator with Efficacy in Preclinical Antipsychotic and Cognition Models” (Journal of Medicinal Chemistry, 2024):
“Also recorded” adds a separate entry of the source. Like-named read-outs stand apart in the source and are kept apart here.

Tests used:
brain homogenate binding = assay type: in vitro ADME, mouse; conditions: fraction unbound
dog mGlu1 = dog mGlu1 (Canis lupus familiaris, UniProt A0A8I3NTE8); assay: mGlu1 PAM assay, dog receptor; assay type: cell-based; conditions: read-out: dog mGlu1 Glumax
3A4 = 3A4 (Homo sapiens, UniProt P08684); assay: inhibition of cytochrome P450 enzymes; assay type: in vitro ADME; design: 0.1 mg/mL human liver microsomes (HLM) and Substrate Mix; from tissue; host or cells: human liver microsomes; conditions: human liver microsomes; read-out: CYP450 3A4 inhibition
Method: A cocktail of substrates for cytochrome P450 enzymes (1A2: Phenacetin, 10 μM; 2C9: Diclofenac, 5 μM; 2D6: Dextromethorphan, 5 μM; 3A4: Midazolam, 2 μM) were mixed for cocktail analysis. For P450 2C19, the substrate stock (Mephenytoin, 40 μM)and substrate mix were prepared separately for discrete analysis. The positive control for pan-P450 inhibition (miconazole) was included alongside each test compound in analysis.
A reaction mixture of 100 mM Kpi, pH 7.4, 0.1 mg/mL human liver microsomes (HLM) and Substrate Mix is prepared and aliquoted into a 96-deepwell block. Test compound and positive control (in duplicate) were then added such that the final concentration of test compound ranged from 0.1–30 μM. […]
Samples were analyzed via electrospray ionization (ESI) on an AB Sciex API-4000 (Foster City, CA) triple-quadrupole instrument that was coupled with Shimadzu LC-10AD pumps (Columbia, MD) and a Leap Technologies CTC PAL autosampler (Carrboro, NC). […]
The IC50 values for each compound were obtained for the individual CYP enzymes by quantitating the inhibition of metabolite formation for each probe substrate. A 0 μM compound condition (or control) was set to 100% enzymatic activity and the effect of increasing test compound concentrations on enzymatic activity could then be calculated from the % of control activity. […]

rat mGlu1 = rat mGlu1 (Rattus norvegicus, UniProt P23385); assay: progressive fold-shift assay, operational model of allosterism; assay type: cell-based
Source text: (§1) To further characterize this novel mGlu1 PAM, we performed progressive fold-shift assays at both human and rat mGlu1 (Figure 4).
(§2) Figure 4 Operational modeling of the effects of increasing concentrations of VU6024578 (19d) on rat (A) and human (B) mGlu1receptors. Increasing amounts of 19d were applied prior to increasing concentrations of glutamate at either rat or human mGlu1. Data were fit in GraphPad Prism as indicated in the Methods section; for panel A, log α was 0.95 and for panel B it was 1.26. Data represent one experiment performed in duplicate.

human mGlu1 [1] = molecular target: T1, human mGlu1 (Homo sapiens, UniProt Q13255); assay: as above; assay type: cell-based
T1 construct: expressed in transfected cells; pcDNA5/TO)
Source text: as §1, §2

human mGlu1 [2] = molecular target: T1, human mGlu1; assay: mGlu1 calcium mobilization (triple-add) PAM assay; assay type: cell-based
Method: Tetracycline-inducible human mGlu1 WT-T-REx-293 cells (Wu et al, Science 2014) were cultured at 37 °C in Dulbecco’s Modified Eagle Medium (DMEM) growth medium containing 10% Tet-tested FBS, 2 mM L-glutamine, 20 mM HEPES, 0.1 mM nonessential amino acids, 1 mM sodium pyruvate, antibiotic/antimycotic, 100 μg/mL hygromycin and 5 μg/mL blasticidin in the presence of 5% CO2. […] The mutant stable cell lines were generated in the same manner as the WT as previously described and cultured in the growth medium described above.
To determine the potency of mGlu1 PAMs in calcium assays, Ca flux was measured as previously described in ACS Chem. Bio. 2014, 9, 2334–2346. Briefly, the day before the assay, human mGlu1 WT-T-REx-293 cells were plated in black-walled, clear-bottomed, poly-D-lysine coated 96-well plates at 80,000 cells/100 μL assay medium (DMEM supplemented with 10% dialyzed FBS, 20 mM HEPES, and 1 mM sodium pyruvate) containing 50 ng/mL of tetracycline to induce mGlu1 expression. The next day, media was removed and the cells were incubated with 50 μL of 1.15 μM Fluo-4 AM dye solution prepared in assay buffer (buffer (Hank’s balanced salt solution, 20 mM HEPES, and 2.5 mM probenecid) for 45 min at 37 °C, the dye was removed and replaced with 45 μL of assay buffer. Then, calcium flux was measured using Flexstation II (Molecular Devices, Sunnyvale, CA). Compounds serially diluted at half log concentrations in DMSO were further diluted in assay buffer. The compounds or DMSO vehicle were added to cells and incubated for 2.5 min and an EC20 concentration of glutamate was added and incubated for 1 min. An ECmax concentration of glutamate was also added to cells that were incubated with DMSO vehicle to accurately calculate the EC20 calcium response. Data were normalized by subtracting the basal florescent peak before EC20 agonist addition from the maximal peak elicited by EC20 agonist and PAMs. Using GraphPad Prism 5.0, the concentration response curves were generated and the potencies of the mGlu1 PAMs were determined.

hERG = hERG (Homo sapiens, UniProt Q12809); assay: hERG manual patch clamp assay; assay type: cell-based
[3] = satellite PK for mouse AHL; assay type: in vivo
Source text: In parallel with the rat AHL study, we carried out a mouse AHL study to determine if the PK/PD relationship would remain intact across rodent species.

[4] = PAM, calcium flux, EC20 glutamate

Sequence of rat mGlu1 (P23385 19-1199): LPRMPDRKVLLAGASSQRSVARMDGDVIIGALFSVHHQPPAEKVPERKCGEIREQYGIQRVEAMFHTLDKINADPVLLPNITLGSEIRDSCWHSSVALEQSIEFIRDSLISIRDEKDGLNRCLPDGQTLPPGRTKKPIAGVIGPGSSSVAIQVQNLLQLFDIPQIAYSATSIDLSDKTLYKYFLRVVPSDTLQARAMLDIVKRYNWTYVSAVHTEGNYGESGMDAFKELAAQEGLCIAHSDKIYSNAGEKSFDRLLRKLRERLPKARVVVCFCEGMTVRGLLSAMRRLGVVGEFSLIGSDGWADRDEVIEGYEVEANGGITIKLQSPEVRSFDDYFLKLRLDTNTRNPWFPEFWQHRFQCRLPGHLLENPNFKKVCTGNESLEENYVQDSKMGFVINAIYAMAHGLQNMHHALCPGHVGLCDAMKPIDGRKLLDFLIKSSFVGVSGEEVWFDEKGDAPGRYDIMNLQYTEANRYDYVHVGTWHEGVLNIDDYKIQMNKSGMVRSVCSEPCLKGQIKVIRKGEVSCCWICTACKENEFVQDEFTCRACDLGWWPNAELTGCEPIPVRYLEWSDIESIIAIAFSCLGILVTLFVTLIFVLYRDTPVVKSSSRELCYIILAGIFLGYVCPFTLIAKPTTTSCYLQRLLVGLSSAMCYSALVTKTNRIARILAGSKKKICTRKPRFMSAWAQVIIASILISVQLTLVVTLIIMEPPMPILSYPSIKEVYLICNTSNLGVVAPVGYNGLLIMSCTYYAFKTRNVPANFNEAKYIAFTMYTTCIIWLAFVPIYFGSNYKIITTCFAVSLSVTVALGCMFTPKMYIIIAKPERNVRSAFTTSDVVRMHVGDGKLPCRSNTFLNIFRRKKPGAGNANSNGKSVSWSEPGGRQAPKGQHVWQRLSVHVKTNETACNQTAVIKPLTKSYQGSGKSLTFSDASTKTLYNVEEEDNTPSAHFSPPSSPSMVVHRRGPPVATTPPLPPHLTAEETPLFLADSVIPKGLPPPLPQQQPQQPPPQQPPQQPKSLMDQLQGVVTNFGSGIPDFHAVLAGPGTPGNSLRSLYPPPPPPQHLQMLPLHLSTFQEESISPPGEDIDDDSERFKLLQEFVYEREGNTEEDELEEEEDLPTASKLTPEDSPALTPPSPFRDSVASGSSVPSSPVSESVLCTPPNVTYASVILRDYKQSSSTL
T1 sequence (Q13255 19-1194): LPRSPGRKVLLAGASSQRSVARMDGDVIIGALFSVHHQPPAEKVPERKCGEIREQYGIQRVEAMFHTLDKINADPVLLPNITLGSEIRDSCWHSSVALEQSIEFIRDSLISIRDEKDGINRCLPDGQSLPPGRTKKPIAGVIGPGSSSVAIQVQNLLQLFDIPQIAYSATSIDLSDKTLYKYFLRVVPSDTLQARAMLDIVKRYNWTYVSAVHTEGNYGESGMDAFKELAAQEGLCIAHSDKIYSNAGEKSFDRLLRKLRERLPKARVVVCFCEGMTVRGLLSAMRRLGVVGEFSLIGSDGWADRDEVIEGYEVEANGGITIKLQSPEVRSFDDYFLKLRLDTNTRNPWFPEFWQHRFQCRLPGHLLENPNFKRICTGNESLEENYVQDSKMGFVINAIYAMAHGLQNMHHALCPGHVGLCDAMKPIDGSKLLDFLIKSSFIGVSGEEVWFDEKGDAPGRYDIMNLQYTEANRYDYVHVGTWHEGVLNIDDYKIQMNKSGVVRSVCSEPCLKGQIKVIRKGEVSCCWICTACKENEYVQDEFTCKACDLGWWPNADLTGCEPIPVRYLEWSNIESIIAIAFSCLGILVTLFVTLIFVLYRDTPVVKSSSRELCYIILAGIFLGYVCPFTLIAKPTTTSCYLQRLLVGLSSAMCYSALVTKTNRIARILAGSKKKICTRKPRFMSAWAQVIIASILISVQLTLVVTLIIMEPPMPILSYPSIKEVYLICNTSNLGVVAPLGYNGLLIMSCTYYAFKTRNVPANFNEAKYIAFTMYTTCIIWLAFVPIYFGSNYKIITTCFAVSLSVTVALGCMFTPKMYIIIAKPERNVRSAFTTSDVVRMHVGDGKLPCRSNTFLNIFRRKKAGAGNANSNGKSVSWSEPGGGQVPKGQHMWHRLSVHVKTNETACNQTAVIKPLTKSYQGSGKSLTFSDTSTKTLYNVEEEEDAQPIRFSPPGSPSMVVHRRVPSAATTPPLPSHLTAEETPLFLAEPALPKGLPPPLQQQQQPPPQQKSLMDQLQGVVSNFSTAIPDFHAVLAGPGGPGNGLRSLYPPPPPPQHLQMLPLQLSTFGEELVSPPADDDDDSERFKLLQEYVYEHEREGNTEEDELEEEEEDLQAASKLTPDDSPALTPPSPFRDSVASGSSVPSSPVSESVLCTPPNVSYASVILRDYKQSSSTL
Sequence of hERG (Q12809 whole entry): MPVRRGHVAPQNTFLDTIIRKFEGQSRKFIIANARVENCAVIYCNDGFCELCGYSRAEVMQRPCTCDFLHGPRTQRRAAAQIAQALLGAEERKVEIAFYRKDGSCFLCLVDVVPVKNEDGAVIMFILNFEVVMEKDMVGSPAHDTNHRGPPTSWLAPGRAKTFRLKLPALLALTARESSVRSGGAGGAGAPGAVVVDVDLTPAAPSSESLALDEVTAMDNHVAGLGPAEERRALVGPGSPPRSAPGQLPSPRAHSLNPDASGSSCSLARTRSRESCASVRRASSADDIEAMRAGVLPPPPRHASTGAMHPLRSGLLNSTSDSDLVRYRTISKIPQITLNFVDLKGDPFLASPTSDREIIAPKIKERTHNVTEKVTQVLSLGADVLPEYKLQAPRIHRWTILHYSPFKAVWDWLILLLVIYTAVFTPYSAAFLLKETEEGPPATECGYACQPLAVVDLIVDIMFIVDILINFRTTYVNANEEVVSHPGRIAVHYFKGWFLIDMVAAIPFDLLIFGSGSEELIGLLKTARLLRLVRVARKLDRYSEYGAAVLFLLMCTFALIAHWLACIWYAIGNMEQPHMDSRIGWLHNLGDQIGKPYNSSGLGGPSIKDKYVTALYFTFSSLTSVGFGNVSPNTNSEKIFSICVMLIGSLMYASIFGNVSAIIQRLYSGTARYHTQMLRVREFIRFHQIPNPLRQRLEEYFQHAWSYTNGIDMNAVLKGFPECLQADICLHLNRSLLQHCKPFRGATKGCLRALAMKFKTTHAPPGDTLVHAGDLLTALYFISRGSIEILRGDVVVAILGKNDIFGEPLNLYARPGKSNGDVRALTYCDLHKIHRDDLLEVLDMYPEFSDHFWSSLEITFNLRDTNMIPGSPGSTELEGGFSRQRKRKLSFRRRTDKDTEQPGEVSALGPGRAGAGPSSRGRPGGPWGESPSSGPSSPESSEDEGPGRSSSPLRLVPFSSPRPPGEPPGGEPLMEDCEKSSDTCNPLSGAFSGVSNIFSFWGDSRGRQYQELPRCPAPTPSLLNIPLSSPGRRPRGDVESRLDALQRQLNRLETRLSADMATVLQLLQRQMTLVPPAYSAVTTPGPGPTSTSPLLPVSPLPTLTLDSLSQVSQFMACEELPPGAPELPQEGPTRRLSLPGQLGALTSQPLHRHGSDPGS
Sequence of dog mGlu1 (A0A8I3NTE8 30-1195): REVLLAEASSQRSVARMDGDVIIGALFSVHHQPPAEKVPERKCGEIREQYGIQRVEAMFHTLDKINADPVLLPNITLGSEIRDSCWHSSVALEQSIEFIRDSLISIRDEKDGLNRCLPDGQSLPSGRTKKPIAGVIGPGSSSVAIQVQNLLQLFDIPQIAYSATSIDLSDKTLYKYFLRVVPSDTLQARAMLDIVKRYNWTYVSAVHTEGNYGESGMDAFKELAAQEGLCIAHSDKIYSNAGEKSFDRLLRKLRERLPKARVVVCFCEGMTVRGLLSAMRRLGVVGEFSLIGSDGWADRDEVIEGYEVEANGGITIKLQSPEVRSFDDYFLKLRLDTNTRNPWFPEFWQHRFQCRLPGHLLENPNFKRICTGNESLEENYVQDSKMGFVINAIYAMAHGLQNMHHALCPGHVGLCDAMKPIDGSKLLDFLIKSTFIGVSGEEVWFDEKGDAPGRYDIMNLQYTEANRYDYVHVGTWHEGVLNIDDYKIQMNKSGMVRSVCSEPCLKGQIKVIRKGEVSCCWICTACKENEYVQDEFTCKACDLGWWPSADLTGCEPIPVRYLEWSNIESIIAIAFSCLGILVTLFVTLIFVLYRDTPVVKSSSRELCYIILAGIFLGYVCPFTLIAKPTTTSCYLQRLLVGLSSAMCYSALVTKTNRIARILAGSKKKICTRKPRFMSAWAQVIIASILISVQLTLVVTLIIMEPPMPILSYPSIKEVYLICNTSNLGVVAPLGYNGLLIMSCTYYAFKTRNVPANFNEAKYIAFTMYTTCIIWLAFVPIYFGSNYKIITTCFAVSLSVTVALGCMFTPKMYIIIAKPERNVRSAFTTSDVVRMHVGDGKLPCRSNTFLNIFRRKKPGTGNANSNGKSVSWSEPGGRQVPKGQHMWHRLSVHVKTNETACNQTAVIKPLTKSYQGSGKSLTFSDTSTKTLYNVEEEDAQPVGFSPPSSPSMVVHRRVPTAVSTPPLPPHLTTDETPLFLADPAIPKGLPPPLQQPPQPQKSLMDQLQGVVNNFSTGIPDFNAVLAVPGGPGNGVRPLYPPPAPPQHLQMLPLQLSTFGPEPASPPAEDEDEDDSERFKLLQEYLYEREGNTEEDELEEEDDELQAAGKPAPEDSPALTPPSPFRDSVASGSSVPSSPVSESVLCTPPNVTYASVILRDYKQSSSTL

Cn1nc(-c2ccnn2C)cc1CNC(=O)c1cc(-c2ccco2)ccc1Cl [Compound 19d, 2-Chloro-N-((1,2′-dimethyl-1H,2’H-[3,3′-bipyrazol]-5-yl)methyl)-5-(furan-2-yl)benzamide]
fu (brain), mouse (brain homogenate binding): 0.081
Emax (dog mGlu1): 129%
IC50 (3A4): 22 µM
EC50 (rat mGlu1; in Figure 4A): 0.044 µM
log α (rat mGlu1; panel A (rat), one experiment in duplicate): 0.95
Kb (rat mGlu1; rat mGlu1, operational model of allosterism, read-out: estimated KB): 1.04 µM
Kb (rat mGlu1; rat mGlu1, printed in Figure 4A, read-out: KB): 1.04 µM
Kb (human mGlu1 [1]; human mGlu1, operational model of allosterism, read-out: estimated KB): 0.219 µM
log α (human mGlu1 [1]; panel B (human), one experiment in duplicate): 1.26
EC50 (human mGlu1 [1]; printed in Figure 4B): 0.046 µM
EC50 (human mGlu1 [2]; [4]): 0.054 µM
human mGlu1 Glumax (human mGlu1 [2]; [4]): 83%
human mGlu1 pEC50 (human mGlu1 [2]; n = 77): 7.31 ± 0.02
receptor desensitization (antagonist/EC80 window) (human mGlu1 [2]; triple-add protocol): only slight mGlu1 desensitization; also recorded: little receptor desensitization
intrinsic agonist activity (compound alone window) (human mGlu1 [2]; triple-add protocol, up to 30 μM): no agonism; also recorded: no intrinsic agonist activity
IC50 (hERG): > 10 µM
free brain concentration ([3]; 10 mg/kg): 36 nM
free brain concentration over the EC50 ([3]; 10 mg/kg): 1.3 fold
free brain concentration ([3]; 30 mg/kg): 67 nM
free brain concentration over the EC50 ([3]; 30 mg/kg): 2.5 fold
